Assay results published in PubChem BioAssay AID256 (DTP/NCI, 2004).
“And” between values parts separate entries of the source, which are not always exact repeats. Equal entries are not always repeated. Toxic doses and inconclusive results are not listed.

System: CD2F1 mice, L1210 leukemia ip, survival T/C
Test: NCI In Vivo Anticancer Drug Screen. Data for tumor model L1210 Leukemia (intraperitoneal) in CD2F1 (CDF1) mice
Settings: higher = longer survival
Summary of the method: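 Tumor-bearing mice (transplanted tumor) were split into treated and vehicle control groups, and the measured endpoint of each treated group was divided by that of its vehicle controls.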

[1] = endpoint: mean survival time, dose: 50.0 mg/kg/injection, schedule: Q01DX009 (ip), vehicle: saline with Tween-80
[2] = endpoint: mean survival time, dose: 100.0 mg/kg/injection, schedule: Q01DX009 (ip), vehicle: saline with Tween-80
[3] = endpoint: mean survival time, dose: 100.0 mg/kg/injection, schedule: Q04DX003 (ip), vehicle: saline with Tween-80
[4] = endpoint: mean survival time, dose: 200.0 mg/kg/injection, schedule: Q01DX009 (ip), vehicle: saline with Tween-80
[5] = endpoint: mean survival time, dose: 200.0 mg/kg/injection, schedule: Q04DX003 (ip), vehicle: saline with Tween-80
[6] = endpoint: mean survival time, dose: 400.0 mg/kg/injection, schedule: Q01DX009 (ip), vehicle: saline with Tween-80
[7] = endpoint: mean survival time, dose: 400.0 mg/kg/injection, schedule: Q04DX003 (ip), vehicle: saline with Tween-80
[8] = endpoint: mean survival time, dose: 100.0 mg/kg/injection, schedule: Q01DX009 (ip), vehicle: Klucel (hydroxypropylcellulose) (HPC)
[9] = endpoint: mean survival time, dose: 200.0 mg/kg/injection, schedule: Q01DX009 (ip), vehicle: Klucel (hydroxypropylcellulose) (HPC)
[10] = endpoint: mean survival time, dose: 75.0 mg/kg/injection, schedule: Q01DX001 (ip), vehicle: saline
[11] = endpoint: mean survival time, dose: 100.0 mg/kg/injection, schedule: Q01DX001 (ip), vehicle: saline with Tween-80
[12] = endpoint: mean survival time, dose: 200.0 mg/kg/injection, schedule: Q01DX001 (ip), vehicle: saline with Tween-80
[13] = endpoint: mean survival time, dose: 400.0 mg/kg/injection, schedule: Q01DX001 (ip), vehicle: saline with Tween-80

Cn1c(=O)[nH]c2c(nc(-c3ccc4c(c3)OCO4)n2C)c1=O
T/C (endpoint: mean survival time, dose: 7.8 mg/kg/injection, schedule: Q01DX005 (ip), vehicle: other): 100 % of control
T/C (endpoint: mean survival time, dose: 15.6 mg/kg/injection, schedule: Q01DX005 (ip), vehicle: other): 95 % of control
T/C (endpoint: mean survival time, dose: 31.3 mg/kg/injection, schedule: Q01DX005 (ip), vehicle: other): 100 % of control
T/C (endpoint: mean survival time, dose: 62.5 mg/kg/injection, schedule: Q01DX005 (ip), vehicle: other): 103 % of control

COc1ccc(CN(CCO)Cc2ccccc2)cc1OC
T/C [1]: 100 % of control
T/C [2]: 90 % of control
T/C [3]: 98 % of control
T/C [4]: 100 % of control
T/C [5]: 97 % of control

CC(C)(O)c1cccc(F)c1
T/C [1]: 102 % of control
T/C [2]: 98 % of control
T/C [4]: 102 % of control
T/C [6]: 102 % of control

COc1ccc(NC(=S)NN)cc1
T/C (endpoint: mean survival time, dose: 25.0 mg/kg/injection, schedule: Q04DX003 (ip), vehicle: saline with Tween-80): 110 % of control
T/C (endpoint: mean survival time, dose: 50.0 mg/kg/injection, schedule: Q04DX003 (ip), vehicle: saline with Tween-80): 91 % of control
T/C [3]: 87 % of control and 96 % of control
T/C [7]: 107 % of control

O=[N+]([O-])c1cccc(N=NN2CCCC2)c1
T/C [2]: 101 % of control
T/C [4]: 92 % of control
T/C [6]: 87 % of control

Cc1ccccc1N=C(N)Nc1ccccc1C
T/C (endpoint: mean survival time, dose: 10.0 mg/kg/injection, schedule: Q04DX003 (ip), vehicle: saline with Tween-80): 98 % of control

Nc1cc(I)c2cccnc2c1O
T/C (endpoint: mean survival time, dose: 6.25 mg/kg/injection, schedule: Q01DX009 (ip), vehicle: saline): 96 % of control
T/C (endpoint: mean survival time, dose: 12.5 mg/kg/injection, schedule: Q01DX009 (ip), vehicle: saline): 111 % of control
T/C (endpoint: mean survival time, dose: 25.0 mg/kg/injection, schedule: Q01DX009 (ip), vehicle: saline): 100 % of control
T/C (endpoint: mean survival time, dose: 50.0 mg/kg/injection, schedule: Q01DX009 (ip), vehicle: saline): 108 % of control

O=C(Nc1ccc(F)c(Cl)c1)Oc1ccc(OCc2ccccc2)cc1
T/C (endpoint: mean survival time, dose: 50.0 mg/kg/injection, schedule: Q01DX009 (ip), vehicle: Klucel (hydroxypropylcellulose) (HPC)): 87 % of control
T/C [8]: 98 % of control
T/C [9]: 93 % of control

COc1cc(C(CC(C)=O)c2cc3c(cc2OC(C)=O)OCO3)cc(OC)c1OC (stereo unspecified) (tested in a mixture with another compound)
T/C (endpoint: median survival time, dose: 15.0 mg/kg/injection, schedule: Q01DX005 (ip), vehicle: saline with Tween-80): 103 % of control
T/C (endpoint: median survival time, dose: 30.0 mg/kg/injection, schedule: Q01DX005 (ip), vehicle: saline with Tween-80): 101 % of control
T/C (endpoint: median survival time, dose: 43.2 mg/kg/injection, schedule: Q01DX005 (ip), vehicle: saline with Tween-80): 105 % of control
T/C (endpoint: median survival time, dose: 60.0 mg/kg/injection, schedule: Q01DX005 (ip), vehicle: saline with Tween-80): 114 % of control
T/C (endpoint: median survival time, dose: 72.0 mg/kg/injection, schedule: Q01DX005 (ip), vehicle: saline with Tween-80): 113 % of control and 110 % of control
T/C (endpoint: median survival time, dose: 200.0 mg/kg/injection, schedule: Q01DX005 (ip), vehicle: saline with Tween-80): 162 % of control and 168 % of control
T/C (endpoint: median survival time, dose: 240.0 mg/kg/injection, schedule: Q01DX005 (ip), vehicle: saline with Tween-80): 103 % of control

O=C(C[n+]1ccccc1)N/N=C/c1c(O)ccc2ccccc12
T/C (endpoint: mean survival time, dose: 25.0 mg/kg/injection, schedule: Q01DX009 (ip), vehicle: saline with Tween-80): 100 % of control
T/C [1]: 99 % of control
T/C [2]: 99 % of control

CC(O)CC1CCCC(CC(C)O)N1 (stereo unspecified)
T/C (endpoint: mean survival time, dose: 5.0 mg/kg/injection, schedule: Q01DX001 (ip), vehicle: saline): 103 % of control
T/C (endpoint: mean survival time, dose: 10.0 mg/kg/injection, schedule: Q01DX001 (ip), vehicle: saline): 97 % of control
T/C (endpoint: mean survival time, dose: 20.0 mg/kg/injection, schedule: Q01DX001 (ip), vehicle: saline): 103 % of control
T/C (endpoint: mean survival time, dose: 40.0 mg/kg/injection, schedule: Q01DX001 (ip), vehicle: saline): 105 % of control
T/C [10]: 98 % of control
T/C (endpoint: mean survival time, dose: 300.0 mg/kg/injection, schedule: Q01DX001 (ip), vehicle: saline): 102 % of control

Cc1cc(N)c(S(=O)(=O)NO)cc1Cl
T/C [11]: 96 % of control
T/C [12]: 96 % of control
T/C [13]: 102 % of control

O=c1c2ccccc2sc2ccc3ccccc3c12
T/C [11]: 106 % of control
T/C [12]: 101 % of control
T/C [13]: 101 % of control

CC1(C)CCC2(C)CC(C(=O)O)C(=O)C=C2C1 (stereo unspecified)
T/C [11]: 100 % of control
T/C [12]: 92 % of control
T/C [13]: 96 % of control

Cc1ccc(NC(=O)Nc2ccccc2C(N)=O)c([N+](=O)[O-])c1
T/C [8]: 95 % of control
T/C [9]: 89 % of control
T/C (endpoint: mean survival time, dose: 400.0 mg/kg/injection, schedule: Q01DX009 (ip), vehicle: Klucel (hydroxypropylcellulose) (HPC)): 95 % of control

CC1(C)OC2C(/C=C3/CC(=O)NC3=O)OC(n3ccc(=O)[nH]c3=O)C2O1 (stereo unspecified)
T/C (endpoint: mean survival time, dose: 12.5 mg/kg/injection, schedule: Q01DX005 (ip), vehicle: distilled water + Tween-80): 100 % of control
T/C (endpoint: mean survival time, dose: 25.0 mg/kg/injection, schedule: Q01DX005 (ip), vehicle: distilled water + Tween-80): 100 % of control
T/C (endpoint: mean survival time, dose: 50.0 mg/kg/injection, schedule: Q01DX005 (ip), vehicle: distilled water + Tween-80): 103 % of control
T/C (endpoint: mean survival time, dose: 100.0 mg/kg/injection, schedule: Q01DX005 (ip), vehicle: distilled water + Tween-80): 100 % of control
T/C (endpoint: mean survival time, dose: 200.0 mg/kg/injection, schedule: Q01DX005 (ip), vehicle: distilled water + Tween-80): 103 % of control

Cc1ccc(Nc2ccc(O)c3c2C(=O)c2c(O)ccc(Nc4ccc(C)cc4)c2C3=O)cc1
T/C [2]: 88 % of control
T/C [4]: 88 % of control
T/C [6]: 98 % of control

CCOC1(c2ccccc2)c2ccccc2C(C)(C)c2ccccc21
T/C [3]: 92 % of control
T/C [7]: 92 % of control

O=NN1CC2CCC1CC2
T/C (endpoint: mean survival time, dose: 5.0 mg/kg/injection, schedule: Q01DX001 (ip), vehicle: saline with Tween-80): 98 % of control
T/C (endpoint: mean survival time, dose: 10.0 mg/kg/injection, schedule: Q01DX001 (ip), vehicle: saline with Tween-80): 101 % of control

CCOC(=O)c1ccc(OC(=O)Nc2ccc(Cl)cc2)cc1
T/C [2]: 96 % of control
T/C [3]: 94 % of control
T/C [4]: 102 % of control
T/C [5]: 94 % of control
T/C [6]: 100 % of control

CC=C(C(=O)OCC)C(=O)OCC
T/C (endpoint: mean survival time, dose: 100.0 mg/kg/injection, schedule: Q01DX001 (ip), vehicle: saline): 95 % of control
T/C (endpoint: mean survival time, dose: 200.0 mg/kg/injection, schedule: Q01DX001 (ip), vehicle: saline): 98 % of control
T/C (endpoint: mean survival time, dose: 400.0 mg/kg/injection, schedule: Q01DX001 (ip), vehicle: saline): 107 % of control

COc1ccc2c(c1)CCN1C2CCN2CCCC21 (stereo unspecified)
T/C [3]: 98 % of control
T/C [5]: 90 % of control

C=CC[n+]1ccccc1/C=C\c1ccc(N(C)C)cc1
T/C [10]: 118 % of control

O=C(O)C(O)C(=O)O.[NH-]C1CCCCC1[NH-].[Pt+2]
T/C (endpoint: mean survival time, dose: 1.18 mg/kg/injection, schedule: Q04DX003 (ip), vehicle: saline with Tween-80): 109 % of control
T/C (endpoint: mean survival time, dose: 2.35 mg/kg/injection, schedule: Q04DX003 (ip), vehicle: saline with Tween-80): 120 % of control
T/C (endpoint: mean survival time, dose: 4.7 mg/kg/injection, schedule: Q04DX003 (ip), vehicle: saline with Tween-80): 124 % of control

COc1ccc(OC)c(NC(=O)Nc2ccc(NC(C)=O)cc2)c1
T/C [2]: 91 % of control
T/C [4]: 95 % of control
T/C [6]: 91 % of control

Cc1cccc(NC(=O)COc2cc(Cl)c(Cl)cc2Cl)c1
T/C (endpoint: mean survival time, dose: 100.0 mg/kg/injection, schedule: Q04DX002 (ip), vehicle: saline with Tween-80): 98 % of control
T/C (endpoint: mean survival time, dose: 200.0 mg/kg/injection, schedule: Q04DX002 (ip), vehicle: saline with Tween-80): 98 % of control
T/C (endpoint: mean survival time, dose: 400.0 mg/kg/injection, schedule: Q04DX002 (ip), vehicle: saline with Tween-80): 94 % of control

CC(O)(CCCCCCCC(C)(O)c1ccccc1)c1ccccc1 (stereo unspecified)
T/C [3]: 113 % of control
T/C [5]: 103 % of control
T/C [7]: 88 % of control
